Experimental data from ChEMBL document CHEMBL4118098, “Discovery of DS28120313 as a potent orally active hepcidin production inhibitor: Design and optimization of novel 4,6-disubstituted indazole derivatives” (Bioorg Med Chem Lett, 2017).

Legend:
[1] = biological target: Serine/threonine-protein kinase PAK 3 (Homo sapiens) (UniProt O75914); assay: Inhibition of PAK3 (unknown origin) at 0.164 uM relative to control
[2] = biological target: Insulin-like growth factor 1 receptor (Homo sapiens) (UniProt P08069); assay: Inhibition of IGF1R (unknown origin) at 0.164 uM relative to control
[3] = biological target: Leukocyte tyrosine kinase receptor (Homo sapiens) (UniProt P29376); assay: Inhibition of LTK (unknown origin) at 0.164 uM relative to control
[4] = biological target: T1, Cyclin-dependent kinase 1/cyclin B1 (Homo sapiens) (UniProt P06493+P14635); assay: Inhibition of CDK1/CyclinB (unknown origin) at 0.164 uM relative to control; assay type: protein-complex assay
[5] = biological target: Dual specificity protein kinase CLK2 (Homo sapiens) (UniProt P49760); assay: Inhibition of CLK2 (unknown origin) at 0.164 uM relative to control
[6] = Metabolic stability in pooled CD1 mouse liver microsomes assessed as parent compound remaining at 1 uM after 30 mins by LC-MS/MS analysis; assay type: ADME, microsome; settings: read-out: Stability
[7] = test system: Proto-oncogene tyrosine-protein kinase receptor Ret (Homo sapiens), P07949 [Y791F]; assay: Inhibition of RET Y791F mutant (unknown origin) at 0.164 uM relative to control
[8] = biological target: Ribosomal protein S6 kinase (Homo sapiens) (UniProt P51812+Q9UBS0+O75676+Q15349+O75582+P23443+Q9UK32+Q15418); assay: Inhibition of p70S6K (unknown origin) at 0.164 uM relative to control; assay type: protein assay
[9] = biological target: Platelet-derived growth factor receptor beta (Homo sapiens) (UniProt P09619); assay: Inhibition of PDGFR beta (unknown origin) at 0.164 uM relative to control
[10] = Tmax in C57BL/6J mouse at 30 mg/kg, po by LC-MS/MS analysis; assay type: ADME, organism-based; settings: in vivo
[11] = biological target: Fibroblast growth factor receptor 4 (Homo sapiens) (UniProt P22455); assay: Inhibition of FGFR4 (unknown origin) at 0.164 uM relative to control
[12] = biological target: Tyrosine-protein kinase Fgr (Homo sapiens) (UniProt P09769); assay: Inhibition of FGR (unknown origin) at 0.164 uM relative to control
[13] = biological target: Cyclin-dependent kinase 5/CDK5 activator 1 (Homo sapiens) (UniProt Q00535+Q15078); assay: Inhibition of CDK5/p25 (unknown origin) at 0.164 uM relative to control; assay type: protein-complex assay
[14] = biological target: Casein kinase I isoform epsilon (Homo sapiens) (UniProt P49674); assay: Inhibition of CK1-epsilon (unknown origin) at 0.164 uM relative to control
[15] = biological target: MAP/microtubule affinity-regulating kinase 4 (Homo sapiens) (UniProt Q96L34); assay: Inhibition of MARK4 (unknown origin) at 0.164 uM relative to control
[16] = biological target: Tyrosine-protein kinase Fes/Fps (Homo sapiens) (UniProt P07332); assay: Inhibition of FES (unknown origin) at 0.45 uM relative to control
[17] = biological target: MAP kinase-interacting serine/threonine-protein kinase 2 (Homo sapiens) (UniProt Q9HBH9); assay: Inhibition of MNK2 (unknown origin) at 0.45 uM relative to control
[18] = test system: Tyrosine-protein kinase ABL1 (Homo sapiens), P00519 [Y253F]; assay: Inhibition of ABL1 Y253F mutant (unknown origin) at 0.19 uM relative to control
[19] = biological target: Interleukin-1 receptor-associated kinase 4 (Homo sapiens) (UniProt Q9NWZ3); assay: Inhibition of IRAK4 (unknown origin) at 0.19 uM relative to control
[20] = test system: Tyrosine-protein kinase ABL1 (Homo sapiens), P00519 [T315I]; assay: Inhibition of Abl T315I mutant (unknown origin) at 0.19 uM relative to control
[21] = biological target: Protein-tyrosine kinase 2-beta (Homo sapiens) (UniProt Q14289); assay: Inhibition of PYK2 (unknown origin) at 0.19 uM relative to control
[22] = biological target: Macrophage-stimulating protein receptor (Homo sapiens) (UniProt Q04912); assay: Inhibition of MST1R (unknown origin) at 0.19 uM relative to control
[23] = biological target: Serine/threonine-protein kinase pim-3 (Homo sapiens) (UniProt Q86V86); assay: Inhibition of PIM3 (unknown origin) at 0.19 uM relative to control
[24] = test system: Epidermal growth factor receptor (Homo sapiens), P00533 [L858R,T790M]; assay: Inhibition of EGFR T790M/L858R double mutant (unknown origin) at 0.19 uM relative to control
[25] = biological target: MAP/microtubule affinity-regulating kinase 3 (Homo sapiens) (UniProt P27448); assay: Inhibition of c-TAK1 (unknown origin) at 0.19 uM relative to control
[26] = biological target: Serine/threonine-protein kinase PAK 2 (Homo sapiens) (UniProt Q13177); assay: Inhibition of PAK2 (unknown origin) at 0.19 uM relative to control
[27] = biological target: T1, Cyclin-dependent kinase 1/cyclin B1 (Homo sapiens); assay: Inhibition of CDK1/Cyclin B1 (unknown origin) at 0.19 uM relative to control; assay type: protein-complex assay
[28] = biological target: Mitogen-activated protein kinase 1 (Homo sapiens) (UniProt P28482); assay: Inhibition of Erk2 (unknown origin) at 0.19 uM relative to control
[29] = biological target: RAC-gamma serine/threonine-protein kinase (Homo sapiens) (UniProt Q9Y243); assay: Inhibition of AKT3 (unknown origin) at 0.19 uM relative to control
[30] = biological target: Cytoplasmic tyrosine-protein kinase BMX (Homo sapiens) (UniProt P51813); assay: Inhibition of BMX (unknown origin) at 0.19 uM relative to control

T1 sequence (P06493 whole entry, looked up): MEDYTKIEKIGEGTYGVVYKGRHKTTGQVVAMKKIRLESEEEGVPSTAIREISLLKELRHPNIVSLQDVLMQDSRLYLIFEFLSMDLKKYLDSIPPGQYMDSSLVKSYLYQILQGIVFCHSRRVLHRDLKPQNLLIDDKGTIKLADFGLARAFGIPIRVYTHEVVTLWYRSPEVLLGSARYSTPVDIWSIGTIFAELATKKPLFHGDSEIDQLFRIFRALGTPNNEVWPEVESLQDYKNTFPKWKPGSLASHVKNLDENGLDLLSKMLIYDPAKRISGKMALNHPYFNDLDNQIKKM
T1 sequence (P14635 whole entry, looked up): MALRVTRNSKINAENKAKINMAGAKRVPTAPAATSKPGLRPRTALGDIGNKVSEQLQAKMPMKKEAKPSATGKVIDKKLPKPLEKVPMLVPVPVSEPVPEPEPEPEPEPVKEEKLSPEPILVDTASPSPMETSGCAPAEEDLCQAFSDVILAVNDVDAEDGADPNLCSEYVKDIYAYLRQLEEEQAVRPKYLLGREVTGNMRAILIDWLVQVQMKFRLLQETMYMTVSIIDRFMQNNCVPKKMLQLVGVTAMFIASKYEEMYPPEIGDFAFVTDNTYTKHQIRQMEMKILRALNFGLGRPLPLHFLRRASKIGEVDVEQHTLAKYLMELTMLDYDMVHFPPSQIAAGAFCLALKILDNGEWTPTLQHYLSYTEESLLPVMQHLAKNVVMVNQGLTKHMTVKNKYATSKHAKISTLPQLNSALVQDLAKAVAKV
Chain of Macrophage-stimulating protein receptor (Homo sapiens) (Q04912 25-304 limits assumed): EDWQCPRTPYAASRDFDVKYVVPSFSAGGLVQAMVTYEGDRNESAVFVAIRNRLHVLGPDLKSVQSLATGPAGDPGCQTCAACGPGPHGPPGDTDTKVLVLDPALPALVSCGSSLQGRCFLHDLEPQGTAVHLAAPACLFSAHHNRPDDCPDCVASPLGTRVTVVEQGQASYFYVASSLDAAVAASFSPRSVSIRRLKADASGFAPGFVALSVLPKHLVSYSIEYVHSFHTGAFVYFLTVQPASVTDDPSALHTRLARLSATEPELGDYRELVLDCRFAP
Chain of Macrophage-stimulating protein receptor (Homo sapiens) (Q04912 310-1400 limits assumed): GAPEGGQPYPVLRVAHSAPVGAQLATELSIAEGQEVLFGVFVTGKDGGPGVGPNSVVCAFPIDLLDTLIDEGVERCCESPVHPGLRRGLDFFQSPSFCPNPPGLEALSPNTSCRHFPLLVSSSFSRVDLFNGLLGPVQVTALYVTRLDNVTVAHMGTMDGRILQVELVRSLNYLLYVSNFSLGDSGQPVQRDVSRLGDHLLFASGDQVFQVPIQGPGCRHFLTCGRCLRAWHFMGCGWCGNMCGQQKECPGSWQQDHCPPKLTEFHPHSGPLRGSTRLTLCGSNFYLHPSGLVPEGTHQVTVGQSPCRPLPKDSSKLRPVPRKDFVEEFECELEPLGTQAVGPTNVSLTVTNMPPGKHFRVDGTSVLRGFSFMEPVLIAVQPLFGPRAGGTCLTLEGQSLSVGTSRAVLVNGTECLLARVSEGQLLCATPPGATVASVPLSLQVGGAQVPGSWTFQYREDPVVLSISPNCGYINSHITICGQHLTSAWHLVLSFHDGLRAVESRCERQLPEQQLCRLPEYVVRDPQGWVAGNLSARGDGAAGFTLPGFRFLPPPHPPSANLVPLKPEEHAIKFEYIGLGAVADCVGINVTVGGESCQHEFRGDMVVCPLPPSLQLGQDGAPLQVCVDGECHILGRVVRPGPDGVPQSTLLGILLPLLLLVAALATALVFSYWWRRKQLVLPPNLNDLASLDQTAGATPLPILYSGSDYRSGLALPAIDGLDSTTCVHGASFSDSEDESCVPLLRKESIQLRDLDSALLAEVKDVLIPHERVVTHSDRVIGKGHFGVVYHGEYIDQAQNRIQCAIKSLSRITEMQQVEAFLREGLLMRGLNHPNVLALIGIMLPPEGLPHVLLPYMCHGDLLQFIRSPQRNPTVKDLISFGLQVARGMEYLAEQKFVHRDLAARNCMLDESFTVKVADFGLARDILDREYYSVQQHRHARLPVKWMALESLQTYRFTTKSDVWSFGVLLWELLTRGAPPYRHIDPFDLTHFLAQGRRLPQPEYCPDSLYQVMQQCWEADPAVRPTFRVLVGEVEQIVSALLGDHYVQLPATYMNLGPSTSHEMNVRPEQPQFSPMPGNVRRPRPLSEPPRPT
Chain of RAC-gamma serine/threonine-protein kinase (Homo sapiens) (Q9Y243 whole entry): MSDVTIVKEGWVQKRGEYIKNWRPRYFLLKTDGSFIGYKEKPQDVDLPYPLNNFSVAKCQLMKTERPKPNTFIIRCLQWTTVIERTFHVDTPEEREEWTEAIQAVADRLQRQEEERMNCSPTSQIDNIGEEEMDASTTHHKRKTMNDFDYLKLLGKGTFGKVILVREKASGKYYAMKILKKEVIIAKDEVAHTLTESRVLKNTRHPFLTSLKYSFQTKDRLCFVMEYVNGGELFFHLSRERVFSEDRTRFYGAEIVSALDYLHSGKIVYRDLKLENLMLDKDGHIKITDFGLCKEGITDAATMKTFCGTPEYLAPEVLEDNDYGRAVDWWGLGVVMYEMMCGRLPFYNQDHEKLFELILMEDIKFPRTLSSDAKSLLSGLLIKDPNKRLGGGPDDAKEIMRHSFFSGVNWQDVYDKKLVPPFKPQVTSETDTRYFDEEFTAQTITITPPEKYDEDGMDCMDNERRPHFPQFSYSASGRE
Chain of Tyrosine-protein kinase Fes/Fps (Homo sapiens) (P07332 whole entry): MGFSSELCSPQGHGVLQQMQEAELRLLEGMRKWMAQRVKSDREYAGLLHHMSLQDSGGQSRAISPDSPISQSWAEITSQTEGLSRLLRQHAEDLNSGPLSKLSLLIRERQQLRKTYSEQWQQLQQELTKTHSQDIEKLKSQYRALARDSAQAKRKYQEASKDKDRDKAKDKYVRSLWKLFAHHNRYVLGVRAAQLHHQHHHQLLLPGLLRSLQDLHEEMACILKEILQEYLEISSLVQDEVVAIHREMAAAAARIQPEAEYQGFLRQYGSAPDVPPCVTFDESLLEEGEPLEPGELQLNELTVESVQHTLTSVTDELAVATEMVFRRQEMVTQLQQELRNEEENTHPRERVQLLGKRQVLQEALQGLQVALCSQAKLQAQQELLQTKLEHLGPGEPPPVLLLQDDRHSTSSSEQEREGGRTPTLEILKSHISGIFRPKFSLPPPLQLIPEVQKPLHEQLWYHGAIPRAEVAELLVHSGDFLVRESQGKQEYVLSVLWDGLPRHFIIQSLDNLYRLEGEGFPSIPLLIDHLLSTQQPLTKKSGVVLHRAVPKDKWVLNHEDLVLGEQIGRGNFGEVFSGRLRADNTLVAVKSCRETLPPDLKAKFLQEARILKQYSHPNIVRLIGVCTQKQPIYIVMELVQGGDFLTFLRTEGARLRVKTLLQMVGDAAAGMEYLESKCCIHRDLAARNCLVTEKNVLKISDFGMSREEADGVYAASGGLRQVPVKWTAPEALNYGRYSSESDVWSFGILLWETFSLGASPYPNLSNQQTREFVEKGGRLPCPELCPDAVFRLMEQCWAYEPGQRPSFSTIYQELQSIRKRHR
Chain of Fibroblast growth factor receptor 4 (Homo sapiens) (P22455 22-802 limits assumed): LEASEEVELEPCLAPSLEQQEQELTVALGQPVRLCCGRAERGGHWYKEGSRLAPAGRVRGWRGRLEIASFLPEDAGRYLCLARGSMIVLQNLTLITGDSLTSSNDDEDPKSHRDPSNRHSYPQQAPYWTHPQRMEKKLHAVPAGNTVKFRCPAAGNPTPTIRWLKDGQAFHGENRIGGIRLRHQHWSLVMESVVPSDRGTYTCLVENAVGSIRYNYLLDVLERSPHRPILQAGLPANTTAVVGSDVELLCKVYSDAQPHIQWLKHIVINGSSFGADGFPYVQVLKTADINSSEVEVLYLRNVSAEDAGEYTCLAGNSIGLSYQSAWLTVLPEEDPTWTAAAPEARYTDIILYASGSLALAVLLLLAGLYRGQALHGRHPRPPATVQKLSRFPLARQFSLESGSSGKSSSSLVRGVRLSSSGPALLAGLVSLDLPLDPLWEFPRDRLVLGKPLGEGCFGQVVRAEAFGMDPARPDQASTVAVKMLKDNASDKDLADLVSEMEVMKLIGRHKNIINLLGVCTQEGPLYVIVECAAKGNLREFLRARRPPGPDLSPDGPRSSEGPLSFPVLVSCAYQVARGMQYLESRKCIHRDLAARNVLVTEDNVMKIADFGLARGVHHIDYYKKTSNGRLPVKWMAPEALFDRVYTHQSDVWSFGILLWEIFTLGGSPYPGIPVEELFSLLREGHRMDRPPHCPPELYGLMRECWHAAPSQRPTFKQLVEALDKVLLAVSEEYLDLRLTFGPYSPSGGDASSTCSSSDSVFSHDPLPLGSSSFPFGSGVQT
Chain of Casein kinase I isoform epsilon (Homo sapiens) (P49674 whole entry, looked up, canonical isoform): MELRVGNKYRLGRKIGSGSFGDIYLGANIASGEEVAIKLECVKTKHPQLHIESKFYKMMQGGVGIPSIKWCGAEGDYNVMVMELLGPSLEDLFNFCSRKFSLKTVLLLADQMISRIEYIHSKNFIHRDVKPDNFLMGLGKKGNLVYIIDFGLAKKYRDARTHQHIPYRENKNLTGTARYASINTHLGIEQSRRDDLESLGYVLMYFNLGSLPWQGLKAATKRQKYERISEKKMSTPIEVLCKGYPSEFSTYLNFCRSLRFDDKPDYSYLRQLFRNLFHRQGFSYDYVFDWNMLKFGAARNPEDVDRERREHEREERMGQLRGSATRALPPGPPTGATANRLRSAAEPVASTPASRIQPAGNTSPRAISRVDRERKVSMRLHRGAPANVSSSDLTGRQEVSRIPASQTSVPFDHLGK

COC(=O)Nc1cc(-c2c(C3CC3)n[nH]c2C)cc2[nH]ncc12 gave an inhibition [1] of -2%, an inhibition [2] of 5.7% and an inhibition [3] of -2.7%. For the same compound, the inhibition [4] was 4%, the inhibition [5] was 0.7% and the remaining at 0.5 h, 1 µM [6] was 84%. For the same compound, the inhibition [7] was 6%, the inhibition [8] was 14.7% and the inhibition [9] was 21%. The Tmax [10] was 40.2 min, the inhibition [11] was 1.3% and the inhibition [12] was -4.3%. It also gave an inhibition [13] of 6.3%, an inhibition [14] of 2.7% and an inhibition [15] of 7.3%.
For Cc1n[nH]c(C)c1-c1ccc2c(NC(=O)c3ccc(N4CCN(C)CC4)cc3)n[nH]c2c1, the inhibition [16] was -3.3% and the inhibition [17] was -1%.
Cc1[nH]nc(C2CC2)c1-c1ccc2c(-c3ccc(N4CCN(C)CC4)nc3)n[nH]c2c1 showed an inhibition [18] of 69.3%, an inhibition [19] of 4.3% and an inhibition [20] of 51.7%. The inhibition [21] was -1.7%, the inhibition [22] was -4.3% and the inhibition [23] was -3.7%. For the same compound, the inhibition [24] was -1%, the inhibition [25] was 0.3% and the inhibition [26] was -3%. For the same compound, the inhibition [27] was 2.3%, the inhibition [28] was 4.7% and the inhibition [29] was 0.7%. For the same compound, the inhibition [30] was -3.7%.
